Experimental data as given in patent US5286729A, “Angiotensin II receptor blocking 2,3,6 substituted quinazolinones” (American Cyanamid Company, priority 1993, dated 1994).

Biological target: T1, Angiotensin II Receptor (Bos taurus, UniProt P25104)
T1 construct: The brownish tissue forming the adrenal cortex is scraped off and finely minced with scissors before homogenization; from tissue; host or cells: beef adrenal cortex, microsomal (100,000 x g) membranes; adrenals from a local slaughter house (Maxwell-Cohen)
T1 sequence (P25104 1-359): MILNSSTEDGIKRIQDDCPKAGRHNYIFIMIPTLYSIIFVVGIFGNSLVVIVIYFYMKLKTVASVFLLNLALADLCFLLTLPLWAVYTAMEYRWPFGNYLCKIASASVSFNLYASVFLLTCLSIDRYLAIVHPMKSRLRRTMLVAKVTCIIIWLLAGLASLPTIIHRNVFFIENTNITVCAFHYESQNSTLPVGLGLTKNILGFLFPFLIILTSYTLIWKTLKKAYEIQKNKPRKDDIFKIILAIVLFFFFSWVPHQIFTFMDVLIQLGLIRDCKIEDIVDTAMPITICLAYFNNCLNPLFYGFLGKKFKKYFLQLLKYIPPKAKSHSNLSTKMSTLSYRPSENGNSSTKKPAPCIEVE
Assay: Receptor Binding Assay, binding of [125I](Sar1,Ile8)AngII to beef adrenal cortex membranes
Conditions: beef adrenal membranes; [125I](Sar1,Ile8)AngII; 60 min, room temperature, pH 7.4
Excerpt: Beef adrenals are obtained from a local slaughter house (Maxwell-Cohen). [^125 I](Sar^1,Ile^8)AngII, S.A. 2200 Ci/mmole, is purchased from Dupont (NEN®, Boston, Mass.).
Approximately sixteen (16) to twenty (20) beef adrenal glands are processed as follows: fresh adrenal glands received on crushed ice are cleaned of fatty tissues and the tough membranes encapsulating the glands are removed and discarded. The brownish tissue forming the adrenal cortex is scraped off and finely minced with scissors before homogenization. Care is taken to avoid contamination with medullary tissue during dissection. The scraped cortices are suspended in twenty volumes of an ice-cold buffer medium consisting of 10 mM Tris.HCl (pH 7.4 at 22° C.) and containing 1.0 mM EDTA and 0.2M sucrose. Unless otherwise indicated, all subsequent operations are done at 4° C. […] The homogenate is centrifuged first at low speed (3,000×g) for 10 min. […] The pelleted membrane is reconstituted in 50.0 mM Tris.HCl buffer containing 0.1 mM of phenylmethylsulfonyl fluoride (PMSF) to give approximately a protein concentration of 2.5 mg per ml of tissue suspension. The membrane preparation is finally aliquoted in 1.0 ml volumes and stored at -70° C. until use in the binding assays. […]

IC50: 130 nM
Compound: CCCCc1nc2ccc(COc3ccccn3)cc2c(=O)n1Cc1ccc(-c2ccccc2-c2nnn[nH]2)cc1.Cl [Example 12, 2-Butyl-6-[(2-pyridinyloxy)methyl]-3-[[2'-(1H-tetrazol-5-yl)[1,1'-biphenyl]-4-yl]methyl]-4(3H)-quinazolinone monohydrochloride]
